# Data: patent publication US8119681B2, “2-[1-phenyl-5-hydroxy or methoxy-4alpha-methyl-hexahydrocyclopenta [ƒ]indazole-5-YL]ethyl phenyl derivatives as glucocorticoid receptor ligands” (Merck Sharp & Dohme Corp., priority 2006, dated 2012)
# pEC50: −log10 of the molar value. Like-named read-outs stand apart in the source and are kept apart here.
# Molecular target: T1, human GR (Homo sapiens, UniProt P04150)
# T1 sequence (P04150 1-777): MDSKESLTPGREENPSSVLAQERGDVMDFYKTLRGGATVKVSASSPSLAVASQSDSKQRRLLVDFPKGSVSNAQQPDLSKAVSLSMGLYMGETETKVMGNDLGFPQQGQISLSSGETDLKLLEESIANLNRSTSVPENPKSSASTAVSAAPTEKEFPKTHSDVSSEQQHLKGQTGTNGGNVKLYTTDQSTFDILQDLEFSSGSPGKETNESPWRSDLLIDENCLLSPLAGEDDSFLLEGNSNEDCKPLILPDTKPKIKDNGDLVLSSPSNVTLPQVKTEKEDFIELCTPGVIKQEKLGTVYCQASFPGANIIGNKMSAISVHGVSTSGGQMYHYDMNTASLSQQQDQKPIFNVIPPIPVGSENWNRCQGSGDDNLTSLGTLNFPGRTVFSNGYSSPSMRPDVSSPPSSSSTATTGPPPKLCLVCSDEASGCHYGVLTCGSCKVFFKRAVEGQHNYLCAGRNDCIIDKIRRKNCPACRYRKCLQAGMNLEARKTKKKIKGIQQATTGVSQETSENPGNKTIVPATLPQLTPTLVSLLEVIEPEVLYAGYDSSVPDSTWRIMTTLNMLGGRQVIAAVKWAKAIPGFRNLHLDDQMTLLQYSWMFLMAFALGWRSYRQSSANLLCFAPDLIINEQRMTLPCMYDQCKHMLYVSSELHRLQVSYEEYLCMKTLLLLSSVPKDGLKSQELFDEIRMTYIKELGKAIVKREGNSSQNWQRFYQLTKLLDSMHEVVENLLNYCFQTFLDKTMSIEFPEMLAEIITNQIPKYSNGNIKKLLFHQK
# Experiment: Trans-Activation Modulation of Glucocorticoid Receptor (GRAMMER), MMTV-LUC reporter gene
# Assay type: cell-based
# Parameters: endogenous in cells
# Conditions: for Emax: A549; for pEC50: A549 cells, IP = inflection point
# Description: Trans-Activation Modulation of Glucocorticoid Receptor (GRAMMER)
# This assay assesses the ability of test compounds to control transcription from the MMTV-LUC reporter gene in lung adenocarcinoma A549 cells or HeLa cells, a human […] cell line that naturally expresses the human GR. The assay measures induction of a modified MMTV LTR/promoter linked to the LUC reporter gene.
# The routine transient assay consists of plating 7,000-25,000 cells/well of a white, clear-bottom 96-well plate. Alternatively, 384-well plates can be used at a cell concentration of 10,000/well. The media that the cells are plated in is “exponential growth medium” which consists of phenol red-free RPMI1640 containing 10% FBS, 4 mM L-glutamine, 20 mM HEPES, 10 ug/mL human insulin, and 20 ug/mL gentamicin. Incubator conditions are 37° C. and 5% CO2. The transfection is done in batch mode. The cells are trypsinized and counted to the right cell number in the proper amount of fresh media. It is then gently mixed with the FuGene6/DNA mix and plated onto the 96 or 384-well plate, all the wells receive 100 uL or 40 uL, respectively, of medium+lipid/DNA complex then incubated 37° C. overnight. The transfection cocktail consists of serum-free OptiMEM, FuGene6 reagent and DNA. The manufacturer's (Roche Biochemical) protocol for cocktail setup is as follows: The lipid to DNA ratio is approximately 2.5:1 and the incubation time is 20 min at room temperature. Sixteen to 24 hours after transfection, the cells are treated with dexamethasone to a final concentration of 10 nM as well as the compound of interest, such that final DMSO (vehicle) concentration is equal to or less than 1%. Each plate also contains samples that are treated with 10 nM dexamethasone alone, which is used as the 100% activity control. The cells are exposed to the compounds for 24 hours. After 24 hours, the cells are lysed by a Promega cell culture lysis buffer for approximately 30 min and then the luciferase activity in the extracts is assayed in the 96-well format luminometer. In 384-well format, Steady-Glo (Promega) or Steady-Lite (PerkinElmer) can be used by adding an equal volume of reagent to the media present in each well. Activity induced by 10 nM dexamethasone alone is set at 100% activity. Antagonist activity is calculated by determining the decrease in dexamethasone-induced activity in response to compound treatment relative to samples that were treated with dexamethasone alone. […] This transactivation assay can be performed in an agonist and antagonist mode to identify these different activities. […]
# [1] = read-out: Transactivation A549 Cells GRAMMER Emax (%)
# [2] = Table 1, read-out: Transactivation A549 Cells GRAMMER IP
# [3] = read-out: Transactiviation A549 Cells GRAMMER Emax (%)
# [4] = Table 2, read-out: Transactiviation A549 Cells GRAMMER IP
Structure (SMILES),Emax [1] [%],pEC50 [2],Emax [3] [%],pEC50 [4]
"C[C@]12Cc3cnn(-c4ccc(F)cc4)c3C=C1CC[C@@]2(O)CCc1ccccc1C(=O)N1CCCC1 [Example 47, (4αS,5R)-1-(4-fluorophenyl)-4α-methyl-5-{2-[2-(pyrrolidin-1-ylcarbonyl)phenyl]ethyl}-1,4,4α,5,6,7-hexahydrocyclopenta[f]indazol-5-ol]",59,6.71,–,–
"CCCNC(=O)c1c(F)cccc1CC[C@]1(O)CCC2=Cc3c(cnn3-c3ccc(F)cc3)C[C@@]21C [Example 49, 2-fluoro-6-{2-[(4αS,5R)-1-(4-fluorophenyl)-5-hydroxy-4α-methyl-1,4,4α,5,6,7-hexahydrocyclopenta[f]indazol-5-yl]ethyl}-N-propylbenzamide]",25,7.59,–,–
"CCNC(=O)c1ccccc1CC[C@]1(O)CCC2=Cc3c(cnn3-c3ccc(F)c(F)c3)C[C@@]21C [Example 51, 2-{2-[(4αS,5R)-1-(3,4-difluorophenyl)-5-hydroxy-4α-methyl-1,4,4α,5,6,7-hexahydrocyclopenta[f]indazol-5-yl]ethyl}-N-ethylbenzamide]",30,6.79,–,–
"C=CCNC(=O)c1c(F)cccc1CC[C@]1(O)CCC2=Cc3c(cnn3-c3ccc(F)cc3)C[C@@]21C [Example 57, N-allyl-2-fluoro-6-{2-[(4αS,5R)-1-(4-fluorophenyl)-5-hydroxy-4α-methyl-1,4,4α,5,6,7-hexahydrocyclopenta[f]indazol-5-yl]ethyl}benzamide]",37,7.62,–,–
"CC(C)(C)NC(=O)c1c(F)cccc1CC[C@]1(O)CCC2=Cc3c(cnn3-c3ccc(F)cc3)C[C@@]21C [Example 59, N-(tert-butyl)-2-fluoro-6-{2-[(4αS,5R)-1-(4-fluorophenyl)-5-hydroxy-4α-methyl-1,4,4α,5,6,7-hexahydrocyclopenta[f]indazol-5-yl]ethyl}benzamide]",40,6.97,–,–
"CC(C)(C)NC(=O)c1ccccc1CC[C@]1(O)CCC2=Cc3c(cnn3-c3ccc(F)cc3)C[C@@]21C [Example 62, N-(tert-butyl)-2-{2-[(4αS,5R)-1-(4-fluorophenyl)-5-hydroxy-4α-methyl-1,4,4α,5,6,7-hexahydrocyclopenta[f]indazol-5-yl]ethyl}benzamide]",23,6.67,–,–
"C[C@]12Cc3cnn(-c4ccc(F)cc4)c3C=C1CC[C@@]2(O)CCc1ccccc1F [Example 70 WO 2004/075840 A2, reference compound]",–,–,144,6.67
"CC(C)S(=O)(=O)NCc1c(F)cccc1CC[C@]1(O)CCC2=Cc3c(cnn3-c3ccc(F)cc3)C[C@@]21C [Example 83, N-(2-fluoro-6-{2-[(4αS,5R)-1-(4-fluorophenyl)-5-hydroxy-4α-methyl-1,4,4α,5,6,7-hexahydrocyclopenta[f]indazol-5-yl]ethyl}benzyl)propane-2-sulfonamide]",21,7.15,–,–
"CCS(=O)(=O)NCc1c(F)cccc1CC[C@]1(O)CCC2=Cc3c(cnn3-c3ccc(F)cc3)C[C@@]21C [Example 84, N-(2-fluoro-6-{2-[(4αS,5R)-1-(4-fluorophenyl)-5-hydroxy-4α-methyl-1,4,4α,5,6,7-hexahydrocyclopenta[f]indazol-5-yl]ethyl}benzyl)ethanesulfonamide]",23,7.30,–,–
"C[C@]12Cc3cnn(-c4ccc(F)cc4)c3C=C1CC[C@@]2(O)CCc1cccc(F)c1CNS(=O)(=O)C1CC1 [Example 88, N-(2-fluoro-6-{2-[(4αS,5R)-1-(4-fluorophenyl)-5-hydroxy-4α-methyl-1,4,4α,5,6,7-hexahydrocyclopenta[f]indazol-5-yl]ethyl}benzyl)cyclopropanesulfonamide]",32,7.28,–,–
"C[C@]12Cc3cnn(-c4ccc(F)cc4)c3C=C1CC[C@@]2(O)CCc1ccccc1C1(NS(=O)(=O)C2CC2)CC1 [Example 91, N-[1-(2-{2-[(4αS,5R)-1-(4-fluorophenyl)-5-hydroxy-4α-methyl-1,4,4α,5,6,7-hexahydrocyclopenta[f]indazol-5-yl]ethyl}phenyl)cyclopropyl]cyclopropanesulfonamide]",46,6.92,–,–

# Other lines, results leading:
Emax [1] [%],pEC50 [2],Emax [3] [%],pEC50 [4],Structure (SMILES)
13,7.03,–,–,"CC(C)[C@@H](C)NC(=O)c1c(F)cccc1CC[C@]1(O)CCC2=Cc3c(cnn3-c3ccc(F)cc3)C[C@@]21C [Example 48, N-[(1R)-1,2-dimethylpropyl]-2-fluoro-6-{2-[(4αS,5R)-1-(4-fluorophenyl)-5-hydroxy-4α-methyl-1,4,4α,5,6,7-hexahydrocyclopenta[f]indazol-5-yl]ethyl}benzamide]"
45,7.68,–,–,"COC(=O)C(C)(C)NC(=O)c1ccccc1CC[C@]1(O)CCC2=Cc3c(cnn3-c3ccc(F)cc3)C[C@@]21C [Example 52, methyl N-(2-{2-[(4αS,5R)-1-(4-fluorophenyl)-5-hydroxy-4α-methyl-1,4,4α,5,6,7-hexahydrocyclopenta[f]indazol-5-yl]ethyl}benzoyl)-2-methylalaninate]"
23,6.76,–,–,"CC(C)(C)CNC(=O)c1c(F)cccc1CC[C@]1(O)CCC2=Cc3c(cnn3-c3ccc(F)cc3)C[C@@]21C [Example 55, N-(2,2-dimethylpropyl)-2-fluoro-6-{2-[(4αS,5R)-1-(4-fluorophenyl)-5-hydroxy-4α-methyl-1,4,4α,5,6,7-hexahydrocyclopenta[f]indazol-5-yl]ethyl}benzamide]"
–,–,28,6.40,"COc1ccccc1CC[C@]1(O)CCC2=Cc3c(cnn3-c3ccc(F)cc3)C[C@@]21C [Example 58 WO 2004/075840 A2, reference compound]"
35,7.07,–,–,"CC(C)CNC(=O)c1c(F)cccc1CC[C@]1(O)CCC2=Cc3c(cnn3-c3ccc(F)cc3)C[C@@]21C [Example 61, 2-fluoro-6-{2-[(4αS,5R)-1-(4-fluorophenyl)-5-hydroxy-4α-methyl-1,4,4α,5,6,7-hexahydrocyclopenta[f]indazol-5-yl]ethyl}-N-isobutylbenzamide]"
19,7.03,–,–,"C[C@]12Cc3cnn(-c4ccc(F)cc4)c3C=C1CC[C@@]2(O)CCc1cccc(F)c1CNS(=O)(=O)C(Cl)Cl [Example 85, 1,1-dichloro-N-(2-fluoro-6-{2-[(4αS,5R)-1-(4-fluorophenyl)-5-hydroxy-4α-methyl-1,4,4α,5,6,7-hexahydrocyclopenta[f]indazol-5-yl]ethyl}benzyl)methanesulfonamide]"
13,6.68,–,–,"C[C@]12Cc3cnn(-c4ccc(F)cc4)c3C=C1CC[C@@]2(O)CCc1cccc(F)c1CNS(=O)(=O)CC(F)(F)F [Example 86, 2,2,2-trifluoro-N-(2-fluoro-6-{2-[(4αS,5R)-1-(4-fluorophenyl)-5-hydroxy-4α-methyl-1,4,4α,5,6,7-hexahydrocyclopenta[f]indazol-5-yl]ethyl}benzyl)ethanesulfonamide]"
20,7.37,–,–,"CN(C)S(=O)(=O)NCc1c(F)cccc1CC[C@]1(O)CCC2=Cc3c(cnn3-c3ccc(F)cc3)C[C@@]21C [Example 89, N′-(2-fluoro-6-{2-[(4αS,5R)-1-(4-fluorophenyl)-5-hydroxy-4α-methyl-1,4,4α,5,6,7-hexahydrocyclopenta[f]indazol-5-yl]ethyl}benzyl)-N,N-dimethylsulfamide]"
